The structures appear in SMILES notation.

The results in this text go back to patent US20090012144A1 (priority 2000, published 2009).

Holding throughout (assay type): in vivo
One experiment deals with Spodoptera frugiperda. The experiment is described as follows: Spodoptera frugiperda test (cabbage leaves, dip). The protocol: (§1) [table] To produce a suitable preparation of active compound, 1 part by weight of active compound is mixed with the stated amounts of solvent and emulsifier, and the concentrate is diluted with emulsifier-containing water to the desired concentration. Cabbage leaves (Brassica oleracea) are treated by being dipped into the preparation of active compound of the desired concentration and are populated with caterpillars of the army worm (Spodoptera frugiperda) while the leaves are still moist. After the desired period of time, the kill in % is determined. 100% means that all caterpillars have been killed; 0% means that none of the caterpillars have been killed.

Experiment [1] relates to Amblyomma hebraeum nymphs. In words: Amblyomma hebraeum (EH) polyphargous tick nymphs/dip treatment. The conditions noted are these: 10 ppm, 1 min immersion, after 4 weeks; 100% = no normal ecdysis. The protocol: [table] 20 mg of active compound are dissolved in 1 ml of dimethyl sulphoxide. To prepare a suitable formulation, the solution of active compound is diluted with water to the concentration desired in each case. 10 nymphs which have sucked themselves full are immersed for 1 min in the preparation of active compound to be tested. The animals are transferred to petri dishes (Ø 9.5 cm) fitted with filter paper discs and covered. After the nymphs have remained in a controlled-environment cabinet for 4 weeks, the ecdysis rate is determined. 100% means that none of the animals have undergone normal ecdysis. 0% means that all animals have undergone ecdysis.

A further experiment relates to Tetranychus urticae. In words: Tetranychus test (OP-resistant/dip treatment). As for the experimental part:
[table] To produce a suitable preparation of active compound, 1 part by weight of active compound is mixed with the stated amounts of solvent and emulsifier, and the concentrate is diluted with emulsifier-containing water to the desired concentration. Bean plants (Phaseolus vulgaris) which are heavily infested by all stages of the greenhouse […] spider mite (Tetranychus urticae) are dipped into the preparation of active compound of the desired concentration. After the desired period of time, the efficacy in % is determined. 100% means that all spider mites have been killed; 0% means that none of the spider mites have been killed.

Another experiment deals with Spodoptera exigua. In words: Spodoptera exigua test (cabbage leaves, dip). As for the experimental part:
as §1, with “exigua)” for “frugiperda)”

For the compound `Fc1cccc(F)c1C1=N[C@H](c2ccc(-c3ccc(SC(F)(F)F)cc3)cc2)CC1` [drawing 93], the “Kill rate in % after 6 d” value with Spodoptera frugiperda (1.6 ppm) worked out at 10%.
For `Fc1cccc(F)c1C1=N[C@@H](c2ccc(-c3ccc(OC(F)(F)F)cc3)cc2)CC1` [drawing 107], in experiment [1], the “Effects on ecdysis in %” value came out at 100%.
Consider `FC(F)=C(F)Oc1ccc(-c2ccc([C@H]3CCC(c4c(F)cccc4F)=N3)cc2)cc1`, for which, in the experiment on Tetranychus urticae (0.01 ppm), the “Kill rate in % after 7 d” value stood at 98%.
Consider `Fc1cccc(F)c1C1=N[C@H](c2ccc(-c3ccc(OC(F)(F)C(F)F)cc3)cc2)CC1`, for which the “Kill rate in % after 6 d” value in the experiment on Spodoptera exigua (1.6 ppm) is recorded as 0%.
The same measure, in the same setting: for `Fc1cccc(F)c1C1=N[C@@H](c2ccc(-c3ccc(SC(F)(F)F)cc3)cc2)CC1` [drawing 83] the value was 100%.
As to `Fc1cccc(F)c1C1=NC(c2ccc(-c3ccc(OC(F)(F)F)cc3)cc2)CC1` (stereo not drawn) [drawing 88], in the experiment with Spodoptera frugiperda (0.02 ppm), the “Kill rate in % after 6 d” value is reported as 25%.
As to `Fc1cccc(F)c1C1=N[C@H](c2ccc(-c3ccc(OC(F)(F)F)cc3)cc2)CC1` [drawing 108], the “Effects on ecdysis in %” value in experiment [1] is reported as 0%.
For the compound `Fc1cccc(F)c1C1=N[C@H](c2ccc(-c3ccc(OC(F)(F)F)cc3)cc2)CC1` [drawing 90], the “Kill rate in % after 6 d” value in the experiment with Spodoptera frugiperda (8 ppm) is recorded as 0%.
For `Fc1cccc(F)c1C1=NC(c2ccc(-c3ccc(OC(F)(F)F)cc3)cc2)CC1` (stereo not drawn) [drawing 106], in experiment [1], the “Effects on ecdysis in %” value amounted to 100%.
`Fc1cccc(F)c1C1=NC(c2ccc(-c3ccc(SC(F)(F)F)cc3)cc2)CC1` (stereo not drawn) [drawing 91]: the “Kill rate in % after 6 d” value with Spodoptera frugiperda (0.0128 ppm) came to 20%.
With `CCOc1cc(C(C)(C)C)ccc1C1CCC(c2c(F)cccc2F)=N1` (stereo not drawn) [drawing 103], the “Effects on ecdysis in %” value in experiment [1] stood at 100%.
Consider `CCOc1cc(C(C)(C)C)ccc1[C@@H]1CCC(c2c(F)cccc2F)=N1` [drawing 99, reference compound], for which the “Kill rate in % after 7 d” value in the experiment with Tetranychus urticae (8 ppm) is listed as 0%.
Turning to `Fc1cccc(F)c1C1=N[C@@H](c2ccc(-c3ccc(SC(F)(F)F)cc3)cc2)CC1` [drawing 92], in the experiment with Spodoptera frugiperda (0.0128 ppm), the “Kill rate in % after 6 d” value was determined as 65%.
Regarding `Fc1cccc(F)c1C1=N[C@H](c2ccc(-c3ccc(OC(F)(F)F)cc3)cc2)CC1` [drawing 101, reference compound], the “Kill rate in % after 7 d” value in the experiment on Tetranychus urticae (0.0128 ppm) is 0%.
For `CCOc1cc(C(C)(C)C)ccc1C1CCC(c2c(F)cccc2F)=N1` (stereo not drawn) [drawing 97, reference compound], the “Kill rate in % after 7 d” value in the experiment on Tetranychus urticae (0.32 ppm) is on record as 0%.
As to `CCOc1cc(C(C)(C)C)ccc1[C@H]1CCC(c2c(F)cccc2F)=N1` [drawing 104], the “Effects on ecdysis in %” value in experiment [1] amounted to 100%.
For the compound `Fc1cccc(F)c1C1=N[C@@H](c2ccc(-c3ccc(OC(F)(F)F)cc3)cc2)CC1` [drawing 89], the “Kill rate in % after 6 d” value in the experiment on Spodoptera frugiperda (0.02 ppm) is 100%.
On to `Fc1cccc(F)c1C1=NC(c2ccc(-c3ccc(OC(F)(F)F)cc3)cc2)CC1` (stereo not drawn) [drawing 80], for which the “Kill rate in % after 6 d” value with Spodoptera exigua (0.04 ppm) came out at 55%.
For `Fc1cccc(F)c1C1=N[C@H](c2ccc(-c3ccc(OC(F)(F)F)cc3)cc2)CC1` [drawing 82], in the experiment with Spodoptera exigua (8 ppm), the “Kill rate in % after 6 d” value was 0%.
On to `CCOc1cc(C(C)(C)C)ccc1[C@@H]1CCC(c2c(F)cccc2F)=N1` [drawing 105], for which the “Effects on ecdysis in %” value in experiment [1] is recorded as 0%.
As to `CCOc1cc(C(C)(C)C)ccc1[C@H]1CCC(c2c(F)cccc2F)=N1` [drawing 98], the “Kill rate in % after 7 d” value in the experiment with Tetranychus urticae (0.32 ppm) is recorded as 90%.
Consider `Fc1cccc(F)c1C1=N[C@@H](c2ccc(-c3ccc(OC(F)(F)F)cc3)cc2)CC1` [drawing 100], for which the “Kill rate in % after 7 d” value in the experiment with Tetranychus urticae (0.0128 ppm) turned out to be 95%.
As to `Fc1cccc(F)c1C1=N[C@H](c2ccc(-c3ccc(SC(F)(F)F)cc3)cc2)CC1` [drawing 84], the “Kill rate in % after 6 d” value in the experiment with Spodoptera exigua (1.6 ppm) was 0%.
Turning to `Fc1cccc(F)c1C1=N[C@@H](c2ccc(-c3ccc(OC(F)(F)F)cc3)cc2)CC1` [drawing 81], in the experiment with Spodoptera exigua (0.04 ppm), the “Kill rate in % after 6 d” value amounted to 100%.
